Experimental data from the NIST ThermoML archive (doi:10.1016/j.fluid.2012.11.039).
± gives the expanded uncertainty stated by the source.

Assays:
[1] = Liquid, Vibrating tube method
[2] = xn = mol fraction of the nth substance listed; details: Liquid, Vibrating tube method

CCCCCCCCCC [decane]
[1], 373.2 K
Details | mass density [kg/m3]
100 kPa | 667.1 ± 0.3
1000 kPa | 668.4 ± 0.4
2000 kPa | 669.6 ± 0.4
3000 kPa | 670.9 ± 0.4
4000 kPa | 672.1 ± 0.4
5000 kPa | 673.4 ± 0.4
6000 kPa | 674.5 ± 0.4
7000 kPa | 675.7 ± 0.4
8000 kPa | 676.9 ± 0.4
9000 kPa | 678.1 ± 0.4
10000 kPa | 679.2 ± 0.4

CCCCCCCCCC [decane] + CCCCCCCCCCCCCCCCCC
[2], 373.2 K, x2 = 0
Details | mass density [kg/m3]
100 kPa | 667.1 ± 0.3
1000 kPa | 668.4 ± 0.4
2000 kPa | 669.6 ± 0.4
3000 kPa | 670.9 ± 0.4
4000 kPa | 672.1 ± 0.4
5000 kPa | 673.4 ± 0.4
6000 kPa | 674.5 ± 0.4
7000 kPa | 675.7 ± 0.4
8000 kPa | 676.9 ± 0.4
9000 kPa | 678.1 ± 0.4
10000 kPa | 679.2 ± 0.4

CCCCCCCCCCCCCCCCCC [octadecane]
[1], 372.9 K
Details | mass density [kg/m3]
1010 kPa | 728.2 ± 0.4
2010 kPa | 729.2 ± 0.4
3020 kPa | 730.2 ± 0.4
4000 kPa | 731.1 ± 0.4
5000 kPa | 732 ± 0.4
6020 kPa | 732.9 ± 0.4
7010 kPa | 733.8 ± 0.4
8000 kPa | 734.7 ± 0.4
8990 kPa | 735.6 ± 0.4
9980 kPa | 736.4 ± 0.4

CCCCCCCCCCCCCCCCCC [octadecane] + CCCCCCCCCC
[2]
Details | mass density [kg/m3]
372.7 K, 100 kPa, x1 = 0.25 | 689.9 ± 0.3
372.7 K, 1010 kPa, x1 = 0.25 | 691 ± 0.4
372.7 K, 2010 kPa, x1 = 0.25 | 692.2 ± 0.4
372.7 K, 3020 kPa, x1 = 0.25 | 693.3 ± 0.4
372.7 K, 4010 kPa, x1 = 0.25 | 694.4 ± 0.4
372.7 K, 5010 kPa, x1 = 0.25 | 695.5 ± 0.4
372.7 K, 6010 kPa, x1 = 0.25 | 696.6 ± 0.4
372.7 K, 7010 kPa, x1 = 0.25 | 697.7 ± 0.4
372.7 K, 8010 kPa, x1 = 0.25 | 698.7 ± 0.4
372.7 K, 9020 kPa, x1 = 0.25 | 699.8 ± 0.4
372.7 K, 10010 kPa, x1 = 0.25 | 700.8 ± 0.4
372.8 K, 100 kPa, x1 = 0.5 | 705.7 ± 0.4
372.8 K, 100 kPa, x1 = 0.75 | 717.8 ± 0.4
372.8 K, 1020 kPa, x1 = 0.5 | 706.8 ± 0.4
372.8 K, 1050 kPa, x1 = 0.75 | 718.9 ± 0.4
372.8 K, 2020 kPa, x1 = 0.5 | 707.8 ± 0.4
372.8 K, 2020 kPa, x1 = 0.75 | 719.9 ± 0.4
372.8 K, 2940 kPa, x1 = 0.5 | 708.7 ± 0.4
372.8 K, 3000 kPa, x1 = 0.75 | 720.8 ± 0.4
372.8 K, 4000 kPa, x1 = 0.75 | 721.8 ± 0.4
372.8 K, 4010 kPa, x1 = 0.5 | 709.9 ± 0.4
372.8 K, 5010 kPa, x1 = 0.5 | 710.9 ± 0.4
372.8 K, 5010 kPa, x1 = 0.75 | 722.8 ± 0.4
372.8 K, 6000 kPa, x1 = 0.5 | 711.9 ± 0.4
372.8 K, 6000 kPa, x1 = 0.75 | 723.7 ± 0.4
372.8 K, 7000 kPa, x1 = 0.5 | 712.9 ± 0.4
372.8 K, 7010 kPa, x1 = 0.75 | 724.6 ± 0.4
372.8 K, 8000 kPa, x1 = 0.5 | 713.9 ± 0.4
372.8 K, 8000 kPa, x1 = 0.75 | 725.5 ± 0.4
372.8 K, 8990 kPa, x1 = 0.75 | 726.4 ± 0.4
372.8 K, 9010 kPa, x1 = 0.5 | 714.8 ± 0.4
372.8 K, 10010 kPa, x1 = 0.5 | 715.8 ± 0.4
372.8 K, 10010 kPa, x1 = 0.75 | 727.4 ± 0.4
372.9 K, 1010 kPa, x1 = 1 | 728.2 ± 0.4
372.9 K, 2010 kPa, x1 = 1 | 729.2 ± 0.4
372.9 K, 3020 kPa, x1 = 1 | 730.2 ± 0.4
372.9 K, 4000 kPa, x1 = 1 | 731.1 ± 0.4
372.9 K, 5000 kPa, x1 = 1 | 732 ± 0.4
372.9 K, 6020 kPa, x1 = 1 | 732.9 ± 0.4
372.9 K, 7010 kPa, x1 = 1 | 733.8 ± 0.4
372.9 K, 8000 kPa, x1 = 1 | 734.7 ± 0.4
372.9 K, 8990 kPa, x1 = 1 | 735.6 ± 0.4
372.9 K, 9980 kPa, x1 = 1 | 736.4 ± 0.4
